Measured values from ChEMBL document CHEMBL1122781, “[(Aminomethyl)aryloxy]acetic acid esters. A new class of high-ceiling diuretics. 1. Effects of nitrogen and aromatic nuclear substitution” (J Med Chem, 1984).

Tested on: Rattus norvegicus
Test: Percent change of arterial blood pressure in spontaneously hypertensive rats at the dose of 100 mg/kg (p.o.) after 6 hr (control BP(mm Hg)=206)
Type: functional
Settings: route oral; call rule not given here

| Structure (SMILES) | Change [%] |
| --- | --- |
| Cl.NS(=O)(=O)c1cc(C(=O)O)c(NCc2ccco2)cc1Cl [FUROSEMIDE HYDROCHLORIDE] | -3 |

Tested on: Rattus norvegicus
Test: Oral dose necessary to produce an excretion of 2 mequiv of Na+/kg in the rat urine in the 4-h period after peroral administration
Type: ADME, organism-based
Settings: in vivo

| Structure (SMILES) | ED2 [mg/kg] |
| --- | --- |
| CCOC(=O)COc1ccc(C(=O)c2ccc(O)c(CN)c2)cc1.Cl | 10 |
| CCOC(=O)COc1ccc(C(=O)c2ccc(O)c(CN)c2)cc1Cl.Cl | 5 |
| CCOC(=O)COc1ccc(C(=O)c2ccc(O)c(CN)c2)c(Cl)c1.Cl | 5 |
| CCOC(=O)COc1ccc(C(=O)c2ccc(O)c(CN)c2)c2ccccc12.Cl | 15 |

Results, then the compound that gave them:

| ED2 [mg/kg] | Structure (SMILES) |
| --- | --- |
| 6 | CCOC(=O)COc1ccc(C(=O)c2ccc(O)c(CN)c2)c(C)c1C.Cl |
| 1 | CCOC(=O)COc1ccc(C(=O)c2cc(I)c(O)c(CN)c2)c(Cl)c1Cl.Cl |
| 1 | CCOC(=O)COc1ccc(C(=O)c2cc(Cl)c(O)c(CN)c2)c(Cl)c1Cl.Cl |
| 11 | CCOC(=O)COc1ccc(C(=O)c2cc(CN)c(O)c(CN)c2)c(Cl)c1Cl.Cl |
| 1 | CCOC(=O)COc1ccc(C(=O)c2cc(C)c(O)c(CN)c2)c(Cl)c1Cl.Cl |
| 7 | CCOC(=O)COc1ccc(C(=O)c2cc(CN(C)C)c(O)c(CN(C)C)c2)c(Cl)c1Cl.Cl |
| 3 | CCOC(=O)COc1ccc(C(=O)c2cc(CN)ccc2O)c(Cl)c1Cl.Cl |
| 4 | CCOC(=O)COc1ccc(C(=O)c2ccc(O)c(CNO)c2)c(Cl)c1Cl.Cl |
| 34 | CCOC(=O)COc1ccc(C(=O)c2ccc(O)c(CN=C(N)N)c2)c(Cl)c1Cl |
| 1.2 | CCOC(=O)COc1ccc(C(=O)c2ccc(O)c(C(C)N)c2)c(Cl)c1Cl.Cl (stereo not given) |
| 50 | CCOC(=O)COc1ccc(C(=O)c2ccc(Cl)c(CN)c2)c(Cl)c1Cl.Cl |
| 16 | CCOC(=O)COc1ccc(C(=O)c2ccc(O)c(CN(C)C)c2)c(Cl)c1Cl.Cl |
| 12 | CCOC(=O)COc1ccc(C(=O)c2cccc(CN)c2)c(Cl)c1Cl.Cl |

Tested on: Rattus norvegicus
Test: Percent change of arterial blood pressure in spontaneously hypertensive rats at the dose of 30 mg/kg (p.o.) after 6 hr (control BP(mm Hg)=210)
Type: functional
Settings: route oral

| Structure (SMILES) | Change [%] |
| --- | --- |
| Cl.NS(=O)(=O)c1cc(C(=O)O)c(NCc2ccco2)cc1Cl [FUROSEMIDE HYDROCHLORIDE] | -6 |

Tested on: Rattus norvegicus
Test: Percent change of arterial blood pressure in spontaneously hypertensive rats at the dose of 30 mg/kg (p.o.) after 24 hr (control BP(mm Hg)=210)
Type: functional
Settings: route oral

| Structure (SMILES) | Change [%] |
| --- | --- |
| Cl.NS(=O)(=O)c1cc(C(=O)O)c(NCc2ccco2)cc1Cl [FUROSEMIDE HYDROCHLORIDE] | 1 |

Tested on: Rattus norvegicus
Test: Oral dose necessary to produce excretion of 2 mequiv of Na+/kg in rat urine in a 4-hr period after oral administration; inactive
Type: ADME, organism-based
Settings: in vivo

| Structure (SMILES) | ED2 |
| --- | --- |
| CCOC(=O)COc1ccc(C(=O)c2cc(CN(CC)CC)c(O)c(CN(CC)CC)c2)c(Cl)c1Cl.Cl | Not Active |
| CCOC(=O)COc1ccc(C(=O)c2ccc(O)c(CN3CCOCC3)c2)c(Cl)c1Cl.Cl | Not Active |
| CCOC(=O)COc1ccc(C(=O)c2ccc(O)c(CN3CCCCC3)c2)c(Cl)c1Cl.Cl | Not Active |
| CCOC(=O)COc1ccc(C(=O)c2cc(CN3CCOCC3)c(O)c(CN3CCOCC3)c2)c(Cl)c1Cl.Cl | Not Active |
| CCOC(=O)COc1ccc(C(=O)c2cc(CN3CCS(=O)(=O)CC3)c(O)c(CN3CCS(=O)(=O)CC3)c2)c(Cl)c1Cl | Not Active |
| CCOC(=O)COc1ccc(C(=O)c2ccc(O)c(CN3CCS(=O)(=O)CC3)c2)c(Cl)c1Cl | Not Active |
| CCOC(=O)COc1ccc(C(=O)c2ccc(O)c(CN3CCCC3)c2)c(Cl)c1Cl.Cl | Not Active |
| CN(C)Cc1cc(C(=O)c2ccc(OCC(=O)O)c(Cl)c2Cl)ccc1O | Not Active |
| CCOC(=O)COc1ccc(C(=O)c2cc(CN3CCCC3)c(O)c(CN3CCCC3)c2)c(Cl)c1Cl.Cl | Not Active |
| CN(C)Cc1cc(C(=O)c2ccc(OCC(=O)O)c(Cl)c2Cl)cc(CN(C)C)c1O.Cl | Not Active |
| CCOC(=O)COc1ccc(C(=O)c2cc(CN3CCCCC3)c(O)c(CN3CCCCC3)c2)c(Cl)c1Cl.Cl | Not Active |
| CCOC(=O)COc1ccc(C(=O)c2ccc3c(c2)CNC(=O)O3)c(Cl)c1Cl | Not Active |

The next lines start with the values.

| ED2 | Structure (SMILES) |
| --- | --- |
| Not Active | CCOC(=O)COc1ccc(C(=O)c2ccc(CN)c(OC)c2)c(Cl)c1Cl.Cl |
| Not Active | CCOC(=O)COc1ccc(C(=O)c2ccc(O)c(C(N)=O)c2)c(Cl)c1Cl |
| Not Active | Br.CCOC(=O)COc1ccc(C(=O)c2ccc(CN)c(O)c2)c(Cl)c1Cl |
| Not Active | CCOC(=O)COc1ccc(C(=O)c2ccc(CN)cc2)c(Cl)c1Cl.Cl |
| Not Active | CCOC(=O)COc1ccc(C(=O)c2ccc(O)c(C[N+](C)(C)C)c2)c(Cl)c1Cl.[Cl-] |
| Not Active | CCOC(=O)COc1ccc(C(=O)c2ccc(O)c(CO)c2)c(Cl)c1Cl |
| Not Active | Br.CCOC(=O)COc1ccc(C(=O)c2ccc(OC)c(CN)c2)c(Cl)c1Cl |
| Not Active | CCOC(=O)COc1ccc(C(=O)c2cccc(CN)c2O)c(Cl)c1Cl.Cl |
| Not Active | CCOC(=O)COc1ccc(C(=O)c2ccc(O)c(CN(CC)CC)c2)c(Cl)c1Cl.Cl |
| Not Active | CCOC(=O)COc1ccc(C(=O)c2ccc(O)c(CNC(C)=O)c2)c(Cl)c1Cl |
| Not Active | CCOC(=O)COc1ccc(C(=O)c2ccc(O)c(C(=O)O)c2)c(Cl)c1Cl |
| Not Active | Cl.NCc1cc(C(=O)c2ccc(OCC(=O)O)c(Cl)c2Cl)ccc1O |

Tested on: Rattus norvegicus
Test: Percent change of arterial blood pressure in spontaneously hypertensive rats at the dose of 300 mg/kg (p.o.) after […] (control BP(mm Hg)=214)
Type: functional
Settings: route oral

| Structure (SMILES) | Change [%] |
| --- | --- |
| Cl.NS(=O)(=O)c1cc(C(=O)O)c(NCc2ccco2)cc1Cl [FUROSEMIDE HYDROCHLORIDE] | -21 |

Tested on: Rattus norvegicus
Test: Percent change of arterial blood pressure in spontaneously hypertensive rats at the dose of 100 mg/kg (p.o.) after 24 hr (control BP(mm Hg)=206)
Type: functional
Settings: route oral

| Structure (SMILES) | Change [%] |
| --- | --- |
| Cl.NS(=O)(=O)c1cc(C(=O)O)c(NCc2ccco2)cc1Cl [FUROSEMIDE HYDROCHLORIDE] | -12 |

Tested on: Rattus norvegicus
Test: Percent change of arterial blood pressure in spontaneously hypertensive rats at the dose of 300 mg/kg (p.o.) after 24 h (control BP(mm Hg)=214)
Type: functional
Settings: route oral

| Structure (SMILES) | Change [%] |
| --- | --- |
| Cl.NS(=O)(=O)c1cc(C(=O)O)c(NCc2ccco2)cc1Cl [FUROSEMIDE HYDROCHLORIDE] | -37 |

Tested on: Rattus norvegicus
Test: Percent change of arterial blood pressure in spontaneously hypertensive rats at the dose of 100 mg/kg (p.o.) after […] (control BP(mm Hg)=206)
Type: functional
Settings: route oral

| Structure (SMILES) | Change [%] |
| --- | --- |
| Cl.NS(=O)(=O)c1cc(C(=O)O)c(NCc2ccco2)cc1Cl [FUROSEMIDE HYDROCHLORIDE] | -11 |

Tested on: Rattus norvegicus
Test: Percent change of arterial blood pressure in spontaneously hypertensive rats at the dose of 300 mg/kg (p.o.) after 6 hr (control BP(mm Hg)=214)
Type: functional
Settings: route oral

| Structure (SMILES) | Change [%] |
| --- | --- |
| Cl.NS(=O)(=O)c1cc(C(=O)O)c(NCc2ccco2)cc1Cl [FUROSEMIDE HYDROCHLORIDE] | -31 |

Tested on: Rattus norvegicus
Test: Percent change of arterial blood pressure in spontaneously hypertensive rats at the dose of 30 mg/kg (p.o.) after […] (control BP(mm Hg)=210)
Type: functional
Settings: route oral

| Structure (SMILES) | Change [%] |
| --- | --- |
| Cl.NS(=O)(=O)c1cc(C(=O)O)c(NCc2ccco2)cc1Cl [FUROSEMIDE HYDROCHLORIDE] | -10 |
